According to US20260248799A1, “COMBINATIONS OF RETINALDEHYDE DEHYDROGENASE 1 (RALDH1) INHIBITORS AND IMMUNOSTIMULATORS AND METHODS USING SAME” (The Trustees of the University of Pennsylvania, priority 2023, published 2026):
Entries after “also recorded” stand apart in the source; their conditions may differ.

How the values were obtained:
[1] = Pharmacokinetics IV and PO in CD-1 mice, plasma; assay type: in vivo; details: mouse plasma
Excerpt: The PK studies were done at NIH or a commercial CRO—Pharmacon using their in-house standard protocol. […] For C99, IV and PO, performed at NIH using CD-1 mice; formulation: 20% HPbCD in saline.

[2] = system: murine HCC cell line (Hepa1-6); test: AldeRed assay in Hepa1-6 cells; assay type: cell-based, mouse; details: murine HCC cell line Hepa1-6, 24 hours
Experimental: Cultures of tumor cells or primary monocyte-derived cells were treated with C86, C91, C99, BMS 493 (Tocris, 3509) or Win 18446 (Tocris, 4736) at a time and concentration indicated in corresponding figure legends.
The AldeRed assay (EMD Millipore) was performed according to manufacturer's instructions to identify cells with ALDH activity. In brief, single-cell suspensions of Huh7, Huh1, SNU449, SNU398, HEP3B, PLC, Hepa 1-6, Hep55, and AL458A cultured cells or single-cell suspension generated from enzymatic digestion of tumors generated from transplantation of these cells in mice (as indicated in figure legends) were incubated with a fluorescent and non-toxic ALDH substrate (AldeRed 588-A); the fluorescent product accumulates in cells proportional to their ALDH activity. The amount of fluorescence produced is measured by flow cytometry. The ALDH inhibitor diethylaminobenzaldehyde (DEAB, provided with the AldeRed assay kit) was used as a negative control for background fluorescence assessment.

[3] = system: Huh7 tumors; test: Huh7 tumors in NU/J mice; assay type: in vivo, mouse
Experimental: FIGS. 26A-26H: Raldh1-INH suppresses HCC growth by altering macrophage functions. FIG. 26A: Huh7 tumor-bearing NU/J mice were treated with C86 (i.p, 10 mg/kg) every day starting when tumor size was approximately 50 mm^3. Tumor volume was measured every 2 days. […] Three or more independent experiments were performed with at least three replicates per experimental group. Unpaired t test, two-tailed. FIG. 26B: AldeRed assay at endpoint on Huh7 tumor treated as described in FIG. 26A. […] Three or more independent experiments were performed with at least three replicates per experimental group. Unpaired t test, two-tailed. FIG. 26C: Huh7 tumor-bearing nude mice were treated with different dose of C86 every day. Tumor volume was measured every 2-3 days. […] Two independent experiments were performed with at least three replicates per experimental group. Unpaired t test, two-tailed. FIG. 26D: Body weight measured every 3-5 days for the experiment outlined in FIG. 26C. FIG. 26E: Parental Huh7 or RALDH1-KO Huh7 cells were implanted subcutaneously into NU/J mice and treated with C86 (i.p, 10 mg/kg) or vehicle (control) every day. […] Three or more independent experiments were performed with at least three replicates per experimental group. Unpaired t test, two-tailed. FIG. 26F: Huh7 tumor-bearing NU/J mice were treated with clodronate liposomes (CloLipo) and/or C86. […] Two independent experiments were performed with at least three replicates per experimental group. Unpaired t test, two-tailed. FIG. 26G: Murine Hepa 1-6 tumors were implanted subcutaneously into C57BL6/J WT mice or LyMCre:RosadnRAR mice. Expression of the dominant negative RAR in myeloid cells slows tumor growth. Two independent experiments were performed with at least three replicates per experimental group. Unpaired t test, two-tailed. FIG. 26H: Huh7 cells were implanted subcutaneously into NU/J mice. When tumor size reached about 50 mm^3, mice were intraperitoneally injected vehicle (control) or C86 daily with or without BMS493 treatment intratumorally every 3 days. BMS493 and C86 suppress tumor growth with the combination showing higher suppression than monotherapy. *, P<0.05; **, P<0.01; ***, P<0.001; n.s., not significant.
Cultured Huh7, Huh1, Hepa 1-6, Hep55, and FS (as indicated in figure legends) tumor cells were detached using 0.25% trypsin (Gibco, catalog #25200056), washed once with 1×PBS, and counted before implantation. 3~6×10^6 tumor cells were implanted subcutaneously (s.c.) into shaved flanks of recipient mice. Tumor dimensions were measured using a caliper starting at the day indicated in the accompanying figure legend and every two to three days thereafter; volume was calculated by using formula Length*Width^2/2. Tumor volumes of 2,000 mm^3, tumor length of 2 cm or tumor ulceration were used as endpoints for survival analyses.
Compound-86, 97 and 99 powder was dissolved in 20% HPβCD saline (2-Hydroxypropyl)-[…]). Drug was administered i.p. or p.o. starting when tumor volume reached 50-150 mm^3 and repeated every day.

[4] = target: T1, Monoamine Oxidase MAO-A (Homo sapiens, UniProt P21397); test: Safetyscreen: MAO-A; assay type: biochemical; details: read-out: % Inh. Monoamine Oxidase MAO-A
T1 construct: Eurofins Cerep Panlabs (contract panel)

[5] = target: T2, Peptidase, CTSG (Cathepsin G) (Homo sapiens, UniProt P08311); test: Safetyscreen: Cathepsin G; assay type: biochemical; details: read-out: % Inh. Peptidase, CTSG (Cathepsin G)
T2 construct: Eurofins Cerep Panlabs (contract panel)

[6] = target: T3, Protein Tyrosine Kinase, LCK (Homo sapiens, UniProt P06239); test: Safetyscreen: LCK; assay type: biochemical; details: read-out: % Inh. Protein Tyrosine Kinase, LCK
T3 construct: Eurofins Cerep Panlabs (contract panel)

[7] = system: Calcium Channel L-Type, Benzothiazepine; test: Safetyscreen: Ca channel L-type, benzothiazepine; assay type: binding, rat; details: 10 μM
[8] = system: Glutamate, NMDA, Phencyclidine; test: Safetyscreen: NMDA, Phencyclidine; assay type: binding, rat; details: 10 μM
[9] = system: Glycine, Strychnine-Sensitive; test: Safetyscreen: Glycine, Strychnine-Sensitive; assay type: binding, rat; details: 10 μM
[10] = target: T4, Histamine H1 (Homo sapiens, UniProt P35367); test: Safetyscreen: Histamine H1; assay type: binding; details: read-out: % Inh. Histamine H1
T4 construct: purchased Eurofins Cereps Panlabs

[11] = target: T5, Opiate δ1 (OP1, DOP) (Homo sapiens, UniProt P41143); test: Safetyscreen: Opiate δ1; assay type: binding; details: read-out: % Inh. Opiate δ1 (OP1, DOP)
T5 construct: Eurofins Cereps Panlabs (contract panel)

[12] = target: T6, Platelet Activating Factor (PAF) (Homo sapiens, UniProt P25105); test: Safetyscreen: PAF; assay type: binding; details: read-out: % Inh. Platelet Activating Factor (PAF)
T6 construct: Eurofins Cereps Panlabs (contract panel)

[13] = intravenous administration, 2 mg/kg
[14] = Huh7 tumor-bearing nude mice, once daily dosing

T6 sequence (P25105 whole entry): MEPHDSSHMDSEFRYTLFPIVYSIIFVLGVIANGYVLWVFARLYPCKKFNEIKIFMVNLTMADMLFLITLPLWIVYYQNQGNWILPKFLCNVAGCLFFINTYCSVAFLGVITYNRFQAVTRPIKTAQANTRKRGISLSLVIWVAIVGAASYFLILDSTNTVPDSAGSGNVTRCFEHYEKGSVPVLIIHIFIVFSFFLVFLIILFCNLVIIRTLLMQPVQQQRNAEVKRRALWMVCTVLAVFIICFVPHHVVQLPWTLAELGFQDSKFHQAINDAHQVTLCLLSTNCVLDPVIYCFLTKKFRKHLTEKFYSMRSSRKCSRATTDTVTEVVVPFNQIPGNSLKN
T2 sequence (P08311 21-244): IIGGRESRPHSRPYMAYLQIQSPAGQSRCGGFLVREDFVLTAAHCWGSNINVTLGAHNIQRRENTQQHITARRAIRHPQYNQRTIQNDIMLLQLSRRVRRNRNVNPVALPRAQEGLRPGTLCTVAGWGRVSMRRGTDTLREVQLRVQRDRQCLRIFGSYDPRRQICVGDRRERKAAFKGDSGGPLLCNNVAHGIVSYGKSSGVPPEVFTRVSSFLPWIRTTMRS
T3 sequence (P06239 whole entry): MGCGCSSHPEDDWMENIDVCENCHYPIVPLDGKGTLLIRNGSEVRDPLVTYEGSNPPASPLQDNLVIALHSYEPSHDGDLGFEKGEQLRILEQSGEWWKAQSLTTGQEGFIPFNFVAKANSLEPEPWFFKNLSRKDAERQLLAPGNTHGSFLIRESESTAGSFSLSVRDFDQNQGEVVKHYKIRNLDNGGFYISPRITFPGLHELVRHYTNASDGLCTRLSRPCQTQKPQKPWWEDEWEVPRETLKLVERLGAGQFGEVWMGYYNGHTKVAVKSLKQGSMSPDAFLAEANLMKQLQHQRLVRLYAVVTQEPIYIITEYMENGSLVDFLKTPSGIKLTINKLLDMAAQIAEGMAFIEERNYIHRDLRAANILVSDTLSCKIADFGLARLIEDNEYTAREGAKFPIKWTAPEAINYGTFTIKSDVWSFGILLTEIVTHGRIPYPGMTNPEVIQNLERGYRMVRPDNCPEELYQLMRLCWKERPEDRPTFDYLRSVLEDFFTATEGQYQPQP
T4 sequence (P35367 whole entry): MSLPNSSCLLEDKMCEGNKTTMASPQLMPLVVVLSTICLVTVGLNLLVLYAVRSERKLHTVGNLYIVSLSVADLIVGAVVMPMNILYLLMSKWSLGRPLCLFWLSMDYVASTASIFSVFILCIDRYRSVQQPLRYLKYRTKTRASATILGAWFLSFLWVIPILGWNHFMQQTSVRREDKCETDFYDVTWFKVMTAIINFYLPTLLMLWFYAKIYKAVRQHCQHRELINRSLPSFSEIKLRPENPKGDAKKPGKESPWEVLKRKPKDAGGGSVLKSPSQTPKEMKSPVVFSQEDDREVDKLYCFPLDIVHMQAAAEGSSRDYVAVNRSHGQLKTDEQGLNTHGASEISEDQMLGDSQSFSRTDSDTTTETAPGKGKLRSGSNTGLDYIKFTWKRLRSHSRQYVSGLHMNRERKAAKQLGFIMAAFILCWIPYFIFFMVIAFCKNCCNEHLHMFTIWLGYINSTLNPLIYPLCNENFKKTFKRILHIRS
T1 sequence (P21397 whole entry): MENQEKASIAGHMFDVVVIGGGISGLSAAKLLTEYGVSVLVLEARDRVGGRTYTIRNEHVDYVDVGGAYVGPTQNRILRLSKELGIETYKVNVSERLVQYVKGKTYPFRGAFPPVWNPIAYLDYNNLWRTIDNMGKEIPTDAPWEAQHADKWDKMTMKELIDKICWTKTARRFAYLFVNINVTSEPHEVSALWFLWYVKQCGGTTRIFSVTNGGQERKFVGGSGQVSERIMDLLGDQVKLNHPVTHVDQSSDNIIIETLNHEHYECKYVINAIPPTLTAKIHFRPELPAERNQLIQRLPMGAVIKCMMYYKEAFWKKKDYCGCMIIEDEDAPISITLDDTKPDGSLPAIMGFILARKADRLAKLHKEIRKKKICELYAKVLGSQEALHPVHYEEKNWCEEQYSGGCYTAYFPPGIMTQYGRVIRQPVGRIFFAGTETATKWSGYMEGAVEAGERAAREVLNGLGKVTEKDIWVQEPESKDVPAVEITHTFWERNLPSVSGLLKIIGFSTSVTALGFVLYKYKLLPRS
T5 sequence (P41143 whole entry): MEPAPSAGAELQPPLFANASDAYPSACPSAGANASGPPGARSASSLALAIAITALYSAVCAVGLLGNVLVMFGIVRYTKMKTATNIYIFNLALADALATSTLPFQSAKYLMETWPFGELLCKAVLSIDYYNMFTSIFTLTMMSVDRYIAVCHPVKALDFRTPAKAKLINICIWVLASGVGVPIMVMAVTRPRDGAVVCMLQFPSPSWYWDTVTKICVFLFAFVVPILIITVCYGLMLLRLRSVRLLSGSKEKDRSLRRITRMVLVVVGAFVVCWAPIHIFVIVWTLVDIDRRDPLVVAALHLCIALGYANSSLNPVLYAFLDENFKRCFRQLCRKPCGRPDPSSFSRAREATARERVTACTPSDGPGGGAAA

SMILES: CS(=O)(=O)N1CCN(C(=O)c2cnc3ccc(F)cc3c2N2CCC(C#N)(c3ccccc3)CC2)CC1 [Compound C-86, 1-(6-fluoro-3-(4-(methylsulfonyl)piperazine-1-carbonyl)quinolin-4-yl)-4-phenylpiperidine-4-carbonitrile]
- AUC0-∞ [1, 13]: 1141 ng·h/mL
- Cmax [1, 13]: 2350 ng/mL
- Vss [1, 13]: 0.7 L/kg
- AUC0-∞ ([1]; oral administration, 10 mg/kg): 2518 ng·h/mL
- Cmax ([1]; oral administration, 10 mg/kg): 1234 ng/mL
- F ([1]; oral administration, 10 mg/kg): 44%
- AldeRed fluorescence [2]: no change in AldeRed fluorescence; also recorded: failed to reduce AldeRed fluorescence
- tumor mass and volume ([3]; Huh7, C-86 versus C-97 (FIGS. 17A-17B)): significant reduction in tumor mass and volume
- dose dependence of effect on tumor volume and tumor mass ([3]; Huh7, FIGS. 13A-13B): dose-dependent effect
- tumor suppression in the absence of TAMs ([3]; Huh7, TAM depletion with CloLipo): did not further suppress tumors
- tumor mass and volume ([3]; Huh7, intraperitoneal administration, compared to a control (FIGS. 12B-12C)): significant reduction in tumor mass and volume
- tumor mass ([3]; Huh7, macrophage depletion study (FIG. 14B)): significant reduction in tumor mass
- dose at which weight loss was observed [3, 14]: 40 mg/kg
- dose with tumor suppressive effects [3, 14]: > 10 mg/kg
- RALDH activity in tumor cells (AldeRed at endpoint) ([3]; Huh7 tumors, CD45− cells): reduced RADLH activity
- response of RALDH1-KO HCC tumors to therapy ([3]; RALDH1-KO Huh7, i.p, 10 mg/kg every day): did not respond
- tumor inhibition ([3]; huh7 in immunodeficient mice, i.p, 10 mg/kg every day): significant tumor inhibition
- inhibition at 10 µM [4]: 2%
- inhibition at 10 µM [5]: 0%
- inhibition at 10 µM [6]: 3%
- % Inh. Calcium Channel L-Type, Benzothiazepine [7]: −3%
- % Inh. Glutamate, NMDA, Phencyclidine [8]: 5%
- % Inh. Glycine, Strychnine-Sensitive [9]: 23%
- inhibition at 10 µM [10]: 13%
- inhibition at 10 µM [11]: 2%
- inhibition at 10 µM [12]: 32%
